According to patent publication US6544989B2, “Benzazoles: benzoxazole, benzthiazole and benzimidazole derivatives” (Syngenta Limited, priority 1998, dated 2003):

Tests used:
Uncinula necator = test: Fungicidal test, Uncinula necator (UNCINE) on vines, PRCO; format: in vivo; settings: METHOD 2 (unbanded)
Meloidogyne incognita = test: Nematode test, J2 infective juveniles of Meloidogyne incognita, mortality; settings: 12.5 ppm; J2 infective juveniles suspended in solution; mortality after three days
Puccinia recondita = test: Fungicidal test, Puccinia recondita (PUCCRT) on wheat, PRCO; format: in vivo; settings: METHOD 2 (unbanded)
Venturia inaequalis = test: Fungicidal test, Venturia inaequalis (VENTIN) on apples, PRCO; format: in vivo; settings: METHOD 2 (unbanded)
Pyricularia oryzae = format: in vivo; settings: METHOD 2 (unbanded)
Septoria nodorum = test: Fungicidal test, Septoria nodorum (LEPTNO) on wheat, PRCO; format: in vivo; settings: METHOD 2 (unbanded)
[1] = test system: Erysiphe graminis f.sp. tritici; test: Fungicidal test, Erysiphe graminis f.sp. tritici (ERYSGT) on wheat, PRCO; format: in vivo; settings: 1 d Prot/Foir; METHOD 2 (unbanded)
Musca domestica = settings: 500 ppm by weight; knockdown assessed 15 minutes after treatment
[2] = test system: Phytophthora infestans lycopersici; format: in vivo; settings: METHOD 2 (unbanded)

| Structure (SMILES) | UNCINE 1 d Prot/Foir PRCO (Uncinula necator) | MELGIN = Meloidogyne incognita, grading of mortality (score) (Meloidogyne incognita) | PUCCRT 1 d Prot/Foir PRCO (Puccinia recondita) | VENTIN 1 d Prot/Foir PRCO (Venturia inaequalis) | PYRIOR 1 d Prot/Foir PRCO (Pyricularia oryzae) | LEPTNO 1 d Prot/Foir PRCO (Septoria nodorum) | ERYSGT 1 d Prot/Foir PRCO [1] | MUSCDO AC = Musca domestica (knockdown), score (Musca domestica) | PHYTIN 1 d Prot/Foir PRCO [2] |
| --- | --- | --- | --- | --- | --- | --- | --- | --- | --- |
| CCC(Cl)c1nc2cc(CC(=O)Nc3snc(C)c3Cl)ccc2o1 (racemic) [95(A3)] | 100 | 0 (0 indicates less than 40% mortality) | 100 | 98 | 96 | 8 | 68 | – | – |
| Cc1nsc(NC(=O)Cc2ccc3oc(C(C)C#N)nc3c2)c1Cl (racemic) [115(A3)] | 2 | 0 (0 indicates less than 40% mortality) | 45 | 15 | 5 | 8 | −3 | – | – |
| Cc1nc2cc(CC(=O)Nc3snc(C)c3Br)ccc2o1 [2(A4)] | 90 | 0 (0 indicates less than 40% mortality) | 100 | 92 | 99 | −12 | 97 | 5 (5 indicates 40-79% mortality) | 100 |
| Cc1nc2cc(CC(=O)Nc3snc(C)c3C#N)ccc2o1 [2(A5)] | 3 | 5 (5 indicates 40-79% mortality) | 28 | 19 | 31 | −2 | 18 | – | 19 |
| CCc1nsc(NC(=O)Cc2ccc3oc(C)nc3c2)c1Cl [2(A8)] | 74 | 0 (0 indicates less than 40% mortality) | 100 | 8 | 75 | 9 | 54 | – | 74 |
| Cc1nc2ccc(CC(=O)Nc3snc(C)c3Cl)cc2[nH]1 [2(A43)] | 11 | 5 (5 indicates 40-79% mortality) | 7 | 14 | 48 | −3 | 20 | 0 (0 indicates less than 40% mortality) | 18 |
| CCCc1nc2cc(CC(=O)Nc3snc(C)c3Cl)ccc2s1 [4(A13)] | 100 | 0 (0 indicates less than 40% mortality) | 100 | 55 | 100 | 20 | 100 | 9 (9 indicates 80-100% mortality) | – |
| CCCc1nc2ccc(CC(=O)Nc3snc(C)c3Cl)cc2[nH]1 [4(A43)] | 35 | – | 31 | – | 38 | 0 | – | – | 0 |
| Cc1nsc(NC(=O)Cc2ccc3nc(C(C)(C)C)[nH]c3c2)c1Cl [9(A43)] | 7 | 0 (0 indicates less than 40% mortality) | 25 | 38 | 26 | −4 | 7 | 0 (0 indicates less than 40% mortality) | 0 |
| Cc1cc(NC(=O)Cc2ccc3oc(CC(C)(C)C)nc3c2)sn1 [15(A1)] | 100 | 0 (0 indicates less than 40% mortality) | 96 | 54 | 87 | 4 | 43 | 5 (5 indicates 40-79% mortality) | 100 |
| Cc1nsc(NC(=O)Cc2ccc3oc(CC(C)(C)C)nc3c2)c1Br [15(A4)] | 100 | 0 (0 indicates less than 40% mortality) | 99 | 54 | 98 | 19 | 91 | 9 (9 indicates 80-100% mortality) | 100 |
| Cc1nsc(NC(=O)Cc2ccc3oc(CC(C)(C)C)nc3c2)c1C#N [15(A5)] | 83 | 0 (0 indicates less than 40% mortality) | 84 | 3 | 81 | −2 | 15 | – | 45 |
| CCc1nsc(NC(=O)Cc2ccc3oc(CC(C)(C)C)nc3c2)c1Cl [15(A8)] | 100 | 0 (0 indicates less than 40% mortality) | – | 24 | 81 | −2 | 80 | – | 99 |
| Cc1nsc(NC(=O)Cc2ccc3nc(CC(C)(C)C)[nH]c3c2)c1Cl [15(A43)] | 63 | – | – | – | 63 | 0 | – | – | 80 |
| Cc1nsc(N(CC(F)(F)F)C(=O)Cc2ccc3oc(CC(C)(C)C)nc3c2)c1Cl [15(H3)] | 63 | 0 (0 indicates less than 40% mortality) | 29 | 0 | 46 | 2 | 16 | – | – |
| Cc1nsc(NC(=O)Cc2ccc3oc(C4CC4)nc3c2)c1Cl [21(A3)] | 44 | 0 (0 indicates less than 40% mortality) | 100 | 50 | 92 | 14 | 35 | – | – |
| Cc1nsc(NC(=O)Cc2ccc3oc(C4CCCCC4)nc3c2)c1Cl [35((A3)] | 100 | – | – | 70 | 98 | – | – | – | – |
| Cc1nsc(NC(=O)Cc2ccc3oc(C(F)(F)F)nc3c2)c1Cl [75(A3)] | 53 | 0 (0 indicates less than 40% mortality) | 94 | 15 | 78 | 27 | 90 | – | – |
| Cc1nsc(NC(=O)Cc2ccc3oc(C(F)(F)C(F)F)nc3c2)c1Cl [79(A3)] | 90 | 0 (0 indicates less than 40% mortality) | 100 | 88 | 98 | 14 | 100 | – | – |
| COCc1nc2cc(CC(=O)Nc3snc(C)c3Cl)ccc2o1 [130(A3)] | 86 | 0 (0 indicates less than 40% mortality) | 100 | 60 | 93 | 21 | 87 | – | – |
| CCN(C)c1nc2cc(CC(=O)Nc3snc(C)c3Cl)ccc2o1 [180(A3)] | 42 | 0 (0 indicates less than 40% mortality) | 69 | 0 | 42 | 14 | 29 | 0 (0 indicates less than 40% mortality) | – |
| Cc1nsc(NC(=O)Cc2ccc3oc(Cc4c(F)c(F)c(F)c(F)c4F)nc3c2)c1Cl [239(A3)] | 51 | 0 (0 indicates less than 40% mortality) | 3 | 5 | 11 | – | 23 | – | – |
| Cc1nsc(NC(=O)Cc2ccc3oc(-c4c(Cl)cc(C(F)(F)F)cc4Cl)nc3c2)c1Cl [244(A3)] | – | 0 (0 indicates less than 40% mortality) | 84 | 45 | −2 | −2 | 3 | – | – |
| Cc1nsc(NC(=O)Cc2ccc3oc(-c4c(F)c(F)c(F)c(F)c4F)nc3c2)c1Cl [287(A3)] | 20 | 0 (0 indicates less than 40% mortality) | 94 | 8 | 19 | −2 | 34 | – | 3 |
| Cc1nsc(NC(=O)Cc2ccc3oc(-c4ccncc4)nc3c2)c1Cl [339((A3)] | 26 | – | – | 8 | 33 | – | – | – | – |
